Source: PubChem BioAssay (NCI)
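Following 48 hours of exposure in 96-well plates, responses at five concentrations were used to interpolate endpoints linearly. Here, GI50 denotes the concentration required for 50% inhibition of growth. TGI denotes the concentration required for complete inhibition of growth.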

Key:
Experiment in all cases: growth of human tumour cells (NCI), 48 h
[1] = test system: SK-MEL-2 melanoma
[2] = test system: COLO 205 colon
[3] = test system: RPMI-8226 leukemia
[4] = test system: HOP-62 NSCLC
[5] = test system: LOX IMVI melanoma
[6] = test system: NCI-H23 lung
[7] = test system: OVCAR-5 ovarian
[8] = test system: MOLT-4 leukemia
[9] = test system: OVCAR-4 ovarian
[10] = test system: SNB-75 CNS

Row | SMILES | GI50 [1] [µM] | TGI [1] [µM] | GI50 [2] [µM] | TGI [2] [µM] | GI50 [3] [µM] | TGI [3] [µM] | GI50 [4] [µM] | TGI [4] [µM] | GI50 [5] [µM] | TGI [5] [µM] | GI50 [6] [µM] | TGI [6] [µM] | GI50 [7] [µM] | TGI [7] [µM] | GI50 [8] [µM] | TGI [8] [µM] | GI50 [9] [µM] | TGI [9] [µM] | GI50 [10] [µM] | TGI [10] [µM]
1 | CNc1c2ccccc2nc2occ(Cl)c12 | > 100 | > 100 | 30.6 | > 100 | 16 | 39.8 | 40.7 | > 100 | 25.5 | 75.2 | 40.9 | > 100 | 47 | > 100 | 13.3 | 64.6 | 29.4 | > 100 | – | –
2 | COc1cc(/C=C/C(=O)c2c(C)n([O-])c3ccccc3[n+]2=O)cc(OC)c1OC | 4.63 | 17.2 | 9.08 | 24.9 | 3.58 | 22.8 | 12.4 | 24.9 | 5.25 | 17.4 | – | – | 11.6 | 24.6 | 3.38 | 40.7 | 10.8 | > 100 | 12.5 | 30.8
3 | N[C@H]1CCC[C@@H](O)C1O (some centres undefined) | – | > 100 | – | > 100 | – | > 100 | – | > 100 | – | > 100 | – | > 100 | – | > 100 | > 100 | > 100 | – | – | – | > 100
4 | O=C(n1c2ccccc2c2n[nH]c(=S)nc21)C(F)(F)F | – | – | – | > 100 | – | – | – | > 100 | – | > 100 | – | > 100 | – | > 100 | – | > 100 | – | > 100 | – | > 100
5 | Cc1cccc(NC(=O)c2c(N)[n+]([O-])c3ccccc3[n+]2[O-])c1 | – | 23.3 | – | 27.2 | – | – | – | 31.3 | – | – | – | 23.4 | – | 42.3 | – | 81 | – | 23.3 | – | 30.2
6 | O=CNC(Cc1cnc[nH]1)C(=O)O (centres undefined) | – | > 100 | – | > 100 | – | > 100 | – | > 100 | – | > 100 | – | > 100 | – | > 100 | – | – | – | > 100 | – | > 100
7 | Cc1cc(NS(=O)(=O)c2ccc(NC(=O)c3ccc(Cl)c4c(Nc5ccc(S(=O)(=O)Nc6cc(C)on6)cc5)c5ccccc5nc34)cc2)no1 | – | 50.5 | – | 41.4 | – | 72.7 | – | 55 | – | 41.6 | – | – | – | 38.6 | – | 77.3 | – | 81.8 | – | 24.5
8 | COc1ccc(-c2cn(C)c3c2-n2cccc2C3=O)cc1O | 19.7 | 55.3 | 17.1 | 38.8 | 2.05 | 17.5 | 5.93 | 29.3 | 3.71 | 13.3 | 3.22 | 16.5 | 5.74 | 25.2 | 7.21 | 82.2 | 25.6 | > 100 | – | –
9 | OCc1c(-c2cccs2)oc(-c2cccs2)c1CO | – | – | 35.9 | > 100 | 41.5 | > 100 | > 100 | > 100 | 26.6 | 52.7 | 38.7 | > 100 | 69.2 | > 100 | 27.9 | > 100 | > 100 | > 100 | 69.4 | > 100
10 | C=CCCC(O)c1cc(C)c(O)c(C)c1 (centres undefined) | – | > 100 | – | > 100 | – | > 100 | – | > 100 | – | > 100 | – | > 100 | – | > 100 | – | > 100 | – | – | – | > 100
11 | COC(=O)NC1(NC(=O)OC)NC(=O)c2ccccc2N1 | – | > 100 | – | > 100 | – | – | – | > 100 | – | – | – | > 100 | – | > 100 | – | > 100 | – | > 100 | – | > 100
12 | CCCCC[C@@H]1CCCC2NC(CCCCCO[Si](c3ccccc3)(c3ccccc3)C(C)(C)C)CCC21 (some centres undefined) | – | 31 | – | – | – | 22.2 | – | 36.8 | – | 28.1 | – | 31.7 | – | 34.8 | – | 29.4 | – | 21 | – | 30
13 | CC(C)(C)c1cc(C2c3cc4c(cc3OC(O)(CO)C2C(=O)O)OCO4)cc(C(C)(C)C)c1O (centres undefined) (tested in a mixture with another compound) | – | – | – | 37.8 | – | 22.7 | – | 53.1 | – | 29.1 | – | 29.6 | – | – | – | 20.3 | – | 25.6 | – | 22.8
14 | CC(=O)/C=C1\CC(=O)N(C)c2ccccc2N1 | – | > 100 | – | > 100 | – | – | – | > 100 | – | > 100 | – | > 100 | – | > 100 | – | > 100 | – | > 100 | – | 0.953
15 | Cn1c(=O)nc2n(-c3ccc(Br)cc3)c3ccccc3nc-2c1=O | – | 28.5 | – | 11.1 | – | 28.8 | – | 64.8 | – | – | – | 4.2 | – | 26.4 | – | 28.7 | – | 14.6 | – | 19.4
16 | O=NNc1ccc(-c2ccccc2)cn1 | – | 52 | – | > 50.3 | – | – | – | 20.6 | – | 28.8 | – | 25.2 | – | > 77.4 | – | – | – | > 70.6 | – | 29.3
17 | O=C(c1ccccc1)c1nc2c(Cl)ccc(Cl)c2cc1C(Br)Br | – | 4.34 | – | 14.5 | – | 2.2 | – | 3.11 | – | 3.07 | – | – | – | 2.29 | – | 7.13 | – | 3.48 | – | 2.07
18 | CN(C)CCNC(=O)c1ccc2c(c1)oc1cc3ccccc3c(=O)n12 | 28.7 | 50.5 | 15.6 | 35.6 | 31 | > 100 | 16 | 30.8 | 1.91 | 11 | 31.8 | > 100 | – | – | 97.7 | > 100 | – | – | 11.1 | 27.4
19 | CC(C)(C)OC(=O)N(CCCCN(CCCn1c2c(c3ccccc3c1=O)C(=O)c1ccccc1-2)C(=O)OC(C)(C)C)CCCn1c2c(c3ccccc3c1=O)C(=O)c1ccccc1-2 | 65.1 | > 100 | > 100 | > 100 | 17.9 | 69.1 | 11 | 73.8 | 18.6 | > 100 | 25 | > 100 | – | – | > 100 | > 100 | > 100 | > 100 | > 100 | > 100
